The source of these data is paper PMC10854695, “Using Flavonoid Substitution Status to Predict Anticancer Effects in Human Melanoma Cancers: An In Vitro Study” (Cancers, 2024).

Read-outs that look alike come from different tables or passages of the source. Some results are limits rather than exact numbers.

Data set [1] relates to C32 melanoma cells.
The test system of data set [2] is human skin fibroblasts (CCD25Sk).
In data set [3] the test system is A375 melanoma cells.
For data set [4], the system named is C32 melanoma cells. This is another data set of the same source.
Data set [5] concerns A375 melanoma cells. This is another data set of the same source.
In data set [6] the test system is human skin fibroblasts (CCD25Sk). This is another data set of the same source.
The nature of data set [7]: Neutral red uptake (NRU) assay, normal cells. As to conditions: human, human skin fibroblasts (CCD25Sk).
Data set [8] relates to C32 melanoma cells. Put plainly: [3H]-thymidine incorporation (DNA biosynthesis), C32. It counts as cell-based, human. As to conditions: read-out: IC50, effect on DNA biosynthesis ([3H]-thymidine incorporation). Background: Dividing cells build labelled thymidine or BrdU into new DNA.
Protocol: (§1) The inhibition of DNA biosynthesis was evaluated using [^3H]-thymidine incorporation into the DNA of melanoma cells (C32, A375) and fibroblasts treated with the studied compounds [21]. The cells were briefly seeded in 24-well plates (1 × 10^5 cells per well) and allowed to adhere for 24 h. […] After incubation for 24, 48, and 72 h, the cells were rinsed three times with PBS. Then, cells were lysed in 1 mL of 0.1 M NaOH containing 1% SDS. The cell lysate was moved into scintillation vials containing scintillation liquid, and the radioactivity of the samples was measured using a liquid scintillation analyzer (Perkin-Elmer, Waltham, MA, USA).
The test system of data set [9] is A375 melanoma cells. Put plainly: MTT cell viability assay, A375.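 Further: Read-out is formazan absorbance at 570 nm after 2 h with MTT, with compounds in at most 0.1% v/v DMSO.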 On the technique in general: Tetrazolium dyes change colour on reduction, which living cells bring about.
The test system of data set [10] is A375 melanoma cells. Put plainly: [3H]-thymidine incorporation (DNA biosynthesis), A375. It counts as cell-based, human. As to conditions: read-out: IC50, effect on DNA biosynthesis ([3H]-thymidine incorporation).
Protocol: as §1
Data set [11] deals with A375 melanoma cells. Put plainly: Neutral red uptake (NRU) assay, A375. As to conditions: Homo sapiens, read-out: IC50, cytotoxic activity, NRU assay.
For data set [12], the system named is C32 melanoma cells. Briefly: MTT cell viability assay, C32.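 Further: MTT added for 2 h, cells lysed in DMSO, absorbance read at 570 nm, compound vehicle kept at or below 0.1% DMSO.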 As to conditions: Homo sapiens, read-out: IC50, cytotoxic activity, MTT test.
The subject of data set [13] is caspases, PARP, phospho-RSK in C32 cells. Put plainly: Western immunoblot of apoptosis mediators and RSK, C32. It counts as cell-based, human. As to conditions: C32, 48 h, Western blot. For orientation: A western blot detects proteins with antibodies after separation by electrophoresis.
Protocol: (§2) Floating cells were harvested by centrifugation of the conditioned media (300× g, 5 min). Cell pellet and adherent cells were lysed in a cell lysis buffer supplemented with inhibitors of proteases and phosphatases. The cell lysate was sonicated (2 × 10 s) on ice with an ultrasonic homogenizer (UP200S, Hielscher Ultrasonics GmbH, Teltow, Germany) and centrifuged for 10 min at 10,000× g. The supernatant was collected and stored in a freezer at −70 °C. Protein concentrations in the cell supernatants were determined using a Lowry assay. Obtained proteins were dissolved on SDS-PAGE gels (7.5%, 10%, or 12%) using the Mini-Protean Tetra system. The proteins were transferred to nitrocellulose membranes using the Mini Trans-Blot Cell wet blotting system. The 5% skim milk was used to block membranes. Then, membranes were probed for 24 h at 4 °C with the following antibodies: anti-phospho-RSK, anti-RSK, anti-PARP, anti-cleaved PARP, anti-caspase-8, anti-caspase-9, anti-caspase-7, anti-caspase-3, and anti-actin. Membranes were incubated with an ECL-HRP (enhanced chemiluminescence-horseradish peroxidase) substrate, and the signal was spotted using the BioSpectrum Imaging System and VisionWorks LS software 7.0 (Ultra-Violet Products, Ltd., San Gabriel, CA, USA). The intensity of the bands was quantified by densitometric analysis using UVIBand software, version 15.08d (Uvitec Ltd., Cambridge, UK).
The subject of data set [14] is caspases, PARP, phospho-RSK in A375 cells. Briefly: Western immunoblot of apoptosis mediators and RSK, A375. It counts as cell-based, human. As to conditions: A375, 48 h, Western blot.
Protocol: as §2
Data set [15] concerns cleaved caspase-3 and cleaved caspase-7 in C32 cells. Briefly: Immunofluorescence of cleaved caspase-3/-7, C32. The class given is cell-based, human. As to conditions: C32, 48 h, immunofluorescent staining.
Data set [16] concerns C32 melanoma cells. Put plainly: Neutral red uptake (NRU) assay, C32. As to conditions: Homo sapiens.
Data set [17] can be described thus: MTT cell viability assay, normal cells.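 Further: fibroblasts served as non-cancer comparison line for selectivity versus melanoma cells, MTT reduction read as absorbance at 570 nm after 2 h dye exposure, compounds in ≤0.1% DMSO.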 The following applies: human, human skin fibroblasts (CCD25Sk).
Data set [18] deals with cleaved caspase-3 and cleaved caspase-7 in A375 cells. Put plainly: Immunofluorescence of cleaved caspase-3/-7, A375. The class given is cell-based, human. The following applies: A375, 48 h, immunofluorescent staining. The procedure:
Firstly, to examine fluorescent signals, cells were placed in the bottom of 96-well black plates at 1 × 10^4 cells per well and permitted to adhere for 24 h. […] After incubating and removing the medium, cells were fixed in 4% paraformaldehyde for 15 min. Later, cells were rinsed three times with PBS and permeabilized with 0.1% Triton X-100 for 5 min at room temperature. The 10% heat-inactivated goat serum in the PBS was used to block non-specific binding. Subsequently, cells were treated with the following antibodies overnight: anti-cleaved caspase 3 and anti-cleaved caspase-7. […] Cell nuclei were stained with Hoechst 33342 and F-actin was stained with Phalloidin-Atto 488. Fluorescent signals were captured using a BD Pathway 855 confocal microscope (Becton Dickinson, Franklin Lakes, NJ, USA). The mean fluorescence intensity was calculated using ImageJ software (National Institutes of Health, Bethesda, Rockville, MD, USA).

Data set [19] deals with human skin fibroblasts (CCD25Sk). Put plainly: [3H]-thymidine incorporation (DNA biosynthesis), normal cells. It counts as cell-based. The following applies: Homo sapiens, Skin fibroblast, read-out: IC50, effect on DNA biosynthesis ([3H]-thymidine incorporation).
Protocol: as §1
Data set [20] deals with A375 melanoma cells. Put plainly: Apoptosis assay, annexin V/PI flow cytometry, A375. It counts as cell-based, human. As to conditions: 48 h.
Protocol: (§3) Firstly, cells were placed in 6-well plates at a density of 1 × 10^5 cells per well and allowed to adhere for 24 h. Then, cells were treated with 25 µM, 50 µM, and 100 μM of the selected flavonoids (1, 6, 15, 16, 17, 37) and incubated for 48 h. Floating and adherent cells were collected and assayed using the manufacturer’s protocol supported by the Dead Cell Apoptosis Kit for flow cytometry. Concisely, 100 μL of an annexin-binding buffer containing a 5 μL annexin V-FITC conjugate solution and 1 μg/mL PI (propidium iodide) was used to disperse the cells. After 15 min of incubation, an additional 400 μL of the mentioned buffer was added. The cells were analyzed with a DxFLEX flow cytometer (Beckman Coulter, Brea, CA, USA).
The subject of data set [21] is A375 cells. Set-up: method as in PMID 28260058. The following applies: 40 µM; cited from earlier work.
A further data set in a line: in vitro. The following applies: human.
Data set [22] concerns C32 melanoma cells. Put plainly: Apoptosis assay, annexin V/PI flow cytometry, C32. The class given is cell-based, human. The following applies: C32, 25 µM, 48 h.
Protocol: as §3
The test system of data set [23] is A375 cells. Set-up: method as in PMID 26911838. The following applies: 10 and 20 μM, dose-dependent; cited from earlier work.
Where [24] appears, read: Homo sapiens, A-375, 24 h, read-out: IC50, cytotoxic activity, MTT test, A375, 24 h.
[25] abbreviates: Homo sapiens, A-375, 48 h, read-out: IC50, cytotoxic activity, MTT test, A375, 48 h.
[26] abbreviates: Homo sapiens, A-375, 72 h, read-out: IC50, cytotoxic activity, MTT test, A375, 72 h.
[27] abbreviates: Homo sapiens, A-375, A375, 24 h.
[28] abbreviates: Homo sapiens, A-375, A375, 48 h.
[29] abbreviates: Homo sapiens, A-375, A375, 72 h.
Where [30] appears, read: C32, 24 h, read-out: IC50, cytotoxic activity, NRU assay, C32, 24 h.
Setting [31] is: C32, 48 h, read-out: IC50, cytotoxic activity, NRU assay, C32, 48 h.
[32] abbreviates: C32, 72 h, read-out: IC50, cytotoxic activity, NRU assay, C32, 72 h.

For `O=c1cc(-c2ccc(O)c(O)c2)oc2cc(OC3OC(CO)C(O)C(O)C3OC3OCC(O)C(O)C3O)cc(O)c12` (centres unmarked) [Compound 9, luteolin 7-O-sambubioside], the IC50 (in the data set on C32 melanoma cells [1]; in data set [2]; in the data set on A375 melanoma cells [3]; with C32 melanoma cells [4]; in the data set with A375 melanoma cells [5]; in data set [6]) was more than 200 µM in each case.
Take `COc1cc(-c2cc(=O)c3c(O)cc(O)c(C4OCC(O)C(O)C4OC4OC(CO)C(OC(C)=O)C(O)C4O)c3o2)ccc1OC(C)=O` (centres unmarked) [Compound 13, 5,7-dihydroxy-3′-methoxy-4′-acetoxyflavone-8-C-arabinoside-2″-O-(4‴-acetoxy)-glucoside]: the IC50 (with C32 melanoma cells [1]; in [2]; in the data set with A375 melanoma cells [3]; in the data set with C32 melanoma cells [4]; with A375 melanoma cells [5]; in data set [6]) was more than 200 µM throughout.
With `O=c1cc(-c2ccc(O)c(O)c2)oc2cc(O)cc(O)c12` [Compound 6, luteolin], the IC50 at 24 h in data set [7] and in data set [17] was more than 200 µM each time. Further, the IC50 at 48 h was found to be 45.2 ± 2.6 µM in data set [7] and 69.7 ± 5.2 µM in data set [17]. Besides, the IC50 at 72 h stood at 21.4 ± 1.7 µM in data set [7] and 20.1 ± 1.4 µM in [17]. The IC50 in the data set with C32 melanoma cells [8] (Homo sapiens, C32, C32, 24 h) is more than 200 µM; in the data set on C32 melanoma cells [8] (Homo sapiens, C32, C32, 48 h), 30.9 ± 2.2 µM; with C32 melanoma cells [8] (Homo sapiens, C32, C32, 72 h) it was 24.5 ± 1.81 µM; in the data set on A375 melanoma cells [9] (setting [24]) it was more than 200 µM; with A375 melanoma cells [9] (setting [25]), 38.2 µM; in the data set with A375 melanoma cells [9] (setting [26]) it was 24.6 ± 1.6 µM. Further, the IC50 is 38.2 ± 4.1 µM in the data set on A375 melanoma cells [9] (read-out: IC50, cytotoxic activity, MTT test, A375, 48 h); 38.5 ± 2.9 µM in the data set on A375 melanoma cells [10] (A375, 48 h); more than 200 µM in the data set with A375 melanoma cells [10] (setting [27]); 38.6 ± 0.91 µM in the data set with A375 melanoma cells [10] (setting [28]); 30.9 ± 1.8 µM with A375 melanoma cells [10] (setting [29]); 58.1 ± 4.2 µM with A375 melanoma cells [11] (A-375, 24 h). The IC50 in the data set on A375 melanoma cells [11] (A-375, 48 h) was 25.7 µM; in the data set on A375 melanoma cells [11] (A-375, 72 h), 23.9 ± 0.23 µM; with C32 melanoma cells [12] (C32, 24 h), more than 200 µM; in the data set on C32 melanoma cells [12] (C32, 48 h) it was 42.1 ± 3.5 µM; in the data set on C32 melanoma cells [12] (C32, 72 h), 13.1 ± 1.3 µM; in the data set with C32 melanoma cells [16] (setting [30]), 41.3 ± 3.8 µM. Also, the IC50 in the data set with C32 melanoma cells [16] (setting [31]) was 13.1 µM; in the data set with C32 melanoma cells [16] (setting [32]), 12.6 ± 1.2 µM; in data set [19] (24 h) it was more than 200 µM; in data set [19] (48 h) it was more than 200 µM; in data set [19] (72 h) it was more than 200 µM. The “cleaved PARP and caspase-9” value in data set [13] was “generated cleaved PARP and caspase-9”. Moreover, the “cleavage of initiator caspases, caspase-9 and caspase-8” value in [14] was “cleavage of both initiator caspases”. Moreover, the “levels of the caspases-3 and -7 zymogens” value in [14] is “decreased levels”. The caspase-3 expression entry in data set [15] is “notably extended”. Also, the “level of the cleaved caspase-7” value in data set [15] is listed as “slightly increased”. Also, in [18], the “level of cleaved caspase-3” value is given as “slightly increased”. Further, in the data set on A375 melanoma cells [20] (A375, 25 µM), the “level of early apoptotic cells” value is on record as 63.6 ± 6.1%. The “level of late apoptotic cells” value in the data set on A375 melanoma cells [20] (A375, 25 µM) was determined as 13.0 ± 1.8%.
For `O=c1cc(-c2ccc(O)cc2)oc2cc(O)cc(O)c12` [Compound 1, apigenin], the IC50 at 24 h (in data set [7]; in the data set “in vitro”) was more than 200 µM throughout. Also, the figures for the IC50 at 48 h (in [7]; in “in vitro”) were 87.8 ± 5.8 µM and more than 200 µM, respectively. Besides, the values for the IC50 at 72 h (in [7]; in “in vitro”) were 58 ± 3.2 µM and 100 to 200 µM, respectively. Further, the IC50 in the data set on C32 melanoma cells [8] (C32, 48 h) was 27 ± 1.4 µM; in the data set on C32 melanoma cells [8] (Homo sapiens, C32, C32, 24 h), more than 200 µM; in the data set with C32 melanoma cells [8] (Homo sapiens, C32, C32, 48 h) it was 27.1 ± 0.49 µM; with C32 melanoma cells [8] (Homo sapiens, C32, C32, 72 h), 22.5 ± 1.2 µM; in the data set with A375 melanoma cells [9] (setting [24]), more than 200 µM; with A375 melanoma cells [9] (setting [25]), 31.9 ± 3 µM. For the same compound, the IC50 with A375 melanoma cells [9] (setting [26]) stood at 20.7 ± 1.5 µM; in the data set on A375 melanoma cells [10] (A375, 48 h), 28.6 ± 1.8 µM; in the data set with A375 melanoma cells [10] (setting [27]), 87.7 ± 4.2 µM; with A375 melanoma cells [10] (setting [28]), 28.6 ± 0.84 µM; in the data set on A375 melanoma cells [10] (setting [29]), 23.4 ± 1.6 µM; with A375 melanoma cells [11] (A-375, 24 h), 64.5 ± 4.3 µM. Further, the IC50 in the data set on A375 melanoma cells [11] (A-375, 48 h) was 24.7 ± 2.4 µM; in the data set on A375 melanoma cells [11] (A-375, 72 h), 21.2 ± 1.4 µM; in the data set on C32 melanoma cells [12] (C32, 24 h) it was more than 200 µM; in the data set with C32 melanoma cells [12] (C32, 48 h), 63.1 ± 4.7 µM; in the data set on C32 melanoma cells [12] (C32, 72 h), 31.8 ± 2.5 µM; with C32 melanoma cells [16] (setting [30]), 100 to 200 µM. Besides, the IC50 is 25.7 ± 1.6 µM in the data set with C32 melanoma cells [16] (setting [31]); 22.4 ± 1.5 µM with C32 melanoma cells [16] (setting [32]); 188 ± 8.1 µM in data set [19] (24 h); 189 ± 9.5 µM in data set [19] (48 h); more than 200 µM in [19] (72 h). Moreover, the “A375 cell viability, MTT assay” value with A375 cells [21] is on record as “decreased A375 cell viability”. Moreover, the “percentage of early apoptotic cells” value in the data set with C32 melanoma cells [22] is on record as 13.3 ± 2.4%. For the same compound, the “percentage of late apoptotic cells” value in the data set on C32 melanoma cells [22] came to 29.4 ± 3.3%. In addition, the “cleaved PARP and caspase-9” value in data set [13] is “generated cleaved PARP and caspase-9”. Also, in [14], the “cleavage of initiator caspases, caspase-9 and caspase-8” value is “cleavage of both initiator caspases”. The “levels of the caspases-3 and -7 zymogens” value in data set [14] is reported as “decreased levels”. In data set [15], the caspase-3 expression entry was “notably extended”. Also, the “A375 cell motility and invasion” value with A375 cells [23] was “significantly inhibited”. Also, in [18], the “level of cleaved caspase-3” value was “slightly increased”. Besides, in the data set with A375 melanoma cells [20] (A375, 50 µM), the “level of early apoptotic cells” value worked out at 34.2 ± 2.8%. In addition, the “level of late apoptotic cells” value in the data set on A375 melanoma cells [20] (A375, 50 µM) is 7.1 ± 1.6%.
For `COc1cc(-c2cc(=O)c3c(O)cc(O)c([C@@H]4OC[C@@H](O)[C@H](O)[C@H]4O[C@@H]4O[C@H](CO)[C@@H](OC(C)=O)[C@H](O)[C@H]4O)c3o2)ccc1OC(C)=O` [Compound 12, 5,7-dihydroxy-3′-methoxy-4′-acetoxyflavone-8-C-xyloside-2″-O-(4‴-acetoxy)-glucoside], the IC50 (in the data set with C32 melanoma cells [1]; in data set [2]; in the data set with A375 melanoma cells [3]; in the data set on C32 melanoma cells [4]; in the data set with A375 melanoma cells [5]; in data set [6]) was more than 200 µM throughout.
